Source: patent US20200188465A1, “TREATMENT OF CYTOKINE RELEASE SYNDROME BY DECREASING LEVEL OF PROINFLAMMATORY CYTOKINE” (Gwo Xi Stem Cell Applied Technology Co., Ltd., priority 2018, published 2020)
“Also recorded” adds a separate entry of the source. Read-outs that look alike come from different tables or passages of the source.

Assays:
Type in all cases: cell-based, Human
IFN-γ [1] = assay: IFN-γ release (ELISA) of Jurkat T cells pre-stimulated with PMA plus ionomycin, then drug (Embodiment 1); settings: for IFN-γ/cell viability: Jurkat pretreated PMA + ionomycin; for IFN-γ content in the cells is reduced at least: summary, concentration not given
Procedure: (§1) Human Jurkat T cell line (Clone E6-1, ATCC TIB 152) and THP-1 were used in the embodiments and purchased from Bioresource Collection and Research Centre (BCRC), Taiwan. The cells were maintained in RPMI 1640 medium (Gibco, Carlsbad, Calif., USA) with 2 mM L-glutamine adjusted to contain 1.5 g/L sodium bicarbonate, 4.5 g/L glucose, 10 mM HEPES, 1.0 mM sodium pyruvate, 1% (v/v) penicillin-streptomycin (HyClone, Logan, Utah), and 10% (v/v) fetal bovine serum (FBS; HyClone). The cells were kept in the incubator with 5% CO2 at 37° C. The passages were performed when the cell density didn't allow the cell concentration to exceed 3×10^6 cells/mL.
(§2) Jurkat cells were seeded in 48-well culture plates at a density of 5.0×10^5 cells/mL in culture medium. To promote Interferon gamma (IFN-γ; IFNG) production, the cells were stimulated with or without the combination of PMA and Ionomycin in culture medium. THP-1 cells were treated with or without the LPS that promoted IL6 production.
(§3) The culture supernatants were harvested by centrifugation and stored at −20° C. for cytokine analysis. The concentration of IFN-γ and IL6 were measured by ELISA kit (Invitrogen, Carlsbad, Calif., USA) according to the manufacturer's instructions.
(§4) After 6 and 24 hours, the supernatants were collected for cell viability analysis and cytokine analysis. The concentration of cytokine was measured by Human IFN-γ ELISA kit (Invitrogen) according to the manufacturers.

Jurkat T cells = assay: Cell viability (MTS) of Jurkat T cells pre-stimulated with PMA plus ionomycin, then drug (Embodiment 1)
Procedure: as §1, §2
(§5) The cell viability was determined using MTS reagent (Promega). Assays were performed by adding MTS to each well for 3 hours at 37° C. with 5% CO2. The amount of formazan converted by living cells, and then recording absorbance at 490 nm with a 96-well plate reader.
as §4

THP-1 cells = assay: Cell viability (MTS) of THP-1 cells pre-stimulated with LPS, then drug (Embodiment 2)
IL6 = IL6 release (ELISA) of THP-1 cells pre-stimulated with LPS, then drug (Embodiment 2); settings: for IL6/cell viability: THP-1 pretreated LPS; for IL-6 content in the cells is reduced at least: summary, concentration not given
Procedure: HyClone). […] The passages were performed when the cell density didn't allow the cell concentration to exceed 3×10^6 cells/mL. Jurkat cells were seeded in 48-well culture plates at a density of 5.0×10^5 cells/mL in culture medium. To promote Interferon gamma (IFN-γ; IFNG) production, the cells were stimulated with or without the combination of PMA and Ionomycin in culture medium. THP-1 cells were treated with or without the LPS that promoted IL6 production. The culture supernatants were harvested by centrifugation and stored at −20° C. for cytokine analysis. The concentration of IFN-γ and IL6 were measured by ELISA kit (Invitrogen, Carlsbad, Calif., USA) according to the manufacturer's instructions. […] The concentration of cytokine was measured by IL6 ELISA kit (Invitrogen) according to the manufacturers.

Jurkat cells = assay: Cell viability (MTS) of Jurkat cells co-treated with PMA, ionomycin and drug (Embodiments 3 and 4)
Procedure: as §1, §5
(§6) In the Embodiment, Jurkat cells were seeded in 48-well culture plates at a density of 5.0×10^5 cells/mL indifferent culture medium, and each of the culture medium contains PMA, ionomycin, and THZ in the proportions shown in Table 3 below.
(§7) After 24 and 48 hours, the supernatants were collected for cell viability analysis and cytokine analysis. The concentration of cytokine was measured by Human IFN-γ ELISA kit (Invitrogen) according to the manufacturers.
(§8) In the Embodiment, Jurkat cells were seeded in 48-well culture plates at a density of 5.0×10^5 cells/mL in different culture medium, and each of the culture medium contains PMA, ionomycin, and HH-F3 in the proportions shown in Table 4 below.
(§9) After 24, 30, and 48 hours, the supernatants were collected for cell viability analysis and cytokine analysis. The concentration of cytokine was measured by Human IFN-γ ELISA kit (Invitrogen) according to the manufacturers.

IFN-γ [2] = assay: IFN-γ release (ELISA) of Jurkat cells co-treated with PMA, ionomycin and drug (Embodiments 3 and 4); settings: for inhibition at 1 µM / inhibition at 5 µM: Homo sapiens, Jurkat, read-out: IFN-γ/cell viability lower than group 2 (PI alone); for inhibition at 1 µM: group 3 (THZ 1 μM); for inhibition at 5 µM: group 4 (THZ 5 μM); for effect on cytokine induction, in words: co-treatment with PMA + ionomycin
Procedure: as §1, §3, §6, §7, §8, §9

[3] = drug 1 μM, 6 h, IFN-γ normalized with cell viability
[4] = drug 1 μM, 6 h, Jurkat pretreated PMA 0.01 μg/mL + ionomycin 1 μM 24 h
[5] = drug 1 μM, 24 h, Jurkat pretreated PMA + ionomycin
[6] = drug 5 μM, 6 h, Jurkat pretreated PMA + ionomycin
[7] = drug 5 μM, 24 h, Jurkat pretreated PMA + ionomycin
[8] = drug 10 μM, 6 h, Jurkat pretreated PMA + ionomycin
[9] = drug 10 μM, 24 h, Jurkat pretreated PMA + ionomycin
[10] = drug 1 μM, 6 h, THP-1 pretreated LPS 0.1 μg/mL 16 h
[11] = drug 1 μM, 24 h, THP-1 pretreated LPS
[12] = drug 5 μM, 6 h, THP-1 pretreated LPS
[13] = drug 5 μM, 24 h, THP-1 pretreated LPS
[14] = drug 10 μM, 6 h, THP-1 pretreated LPS
[15] = drug 10 μM, 24 h, THP-1 pretreated LPS
[16] = drug 1 μM, 6 h, IL6 normalized with cell viability
[17] = at 24 hours after administering
[18] = group 3, THZ 1 μM co-treated with PI, 48 hr
[19] = group 4, THZ 5 μM co-treated with PI, 24 hr
[20] = group 4, THZ 5 μM co-treated with PI, 48 hr

O=C(CCCCCCC(=O)Nc1ccccc1)NO [SAHA, Suberoylanilide hydroxamic acid]
IFN-γ/cell viability (IFN-γ [1]; [3]): 25.5 pg/mL
IFN-γ/cell viability (IFN-γ [1]; drug 1 μM, 24 h): 33.8 pg/mL
IFN-γ/cell viability (IFN-γ [1]; drug 5 μM, 6 h): 28.2 pg/mL
IFN-γ/cell viability (IFN-γ [1]; drug 5 μM, 24 h): 34.0 pg/mL
IFN-γ/cell viability (IFN-γ [1]; drug 10 μM, 6 h): 28.0 pg/mL
IFN-γ/cell viability (IFN-γ [1]; drug 10 μM, 24 h): 32.0 pg/mL
Cell Viability (%) (Jurkat T cells; [4]): 70 ± 9%
Cell Viability (%) (Jurkat T cells; [5]): 53 ± 5%
Cell Viability (%) (Jurkat T cells; [6]): 65 ± 7%
Cell Viability (%) (Jurkat T cells; [7]): 59 ± 2%
Cell Viability (%) (Jurkat T cells; [8]): 65 ± 2%
Cell Viability (%) (Jurkat T cells; [9]): 60 ± 6%

CN1CCN(CCCN2c3ccccc3Sc3ccc(C(F)(F)F)cc32)CC1 [TFP, Trifluoperazine]
IFN-γ/cell viability (IFN-γ [1]; [3]): 41.8 pg/mL
IFN-γ/cell viability (IFN-γ [1]; drug 1 μM, 24 h): 39.7 pg/mL
IFN-γ/cell viability (IFN-γ [1]; drug 5 μM, 6 h): 35.7 pg/mL
IFN-γ/cell viability (IFN-γ [1]; drug 5 μM, 24 h): 32.5 pg/mL
IFN-γ/cell viability (IFN-γ [1]; drug 10 μM, 6 h): 40.9 pg/mL
IFN-γ/cell viability (IFN-γ [1]; drug 10 μM, 24 h): 35.6 pg/mL
Cell Viability (%) (THP-1 cells; [10]): 63 ± 6%
Cell Viability (%) (THP-1 cells; [11]): 96 ± 9%
Cell Viability (%) (THP-1 cells; [12]): 75 ± 4%
Cell Viability (%) (THP-1 cells; [13]): 82 ± 9%
Cell Viability (%) (THP-1 cells; [14]): 71 ± 8%
Cell Viability (%) (THP-1 cells; [15]): 75 ± 8%
IL6/cell viability (IL6; [16]): 43.9 pg/mL
IL6/cell viability (IL6; drug 1 μM, 24 h): 42.8 pg/mL
IL6/cell viability (IL6; drug 5 μM, 6 h): 35.6 pg/mL
IL6/cell viability (IL6; drug 5 μM, 24 h): 33.9 pg/mL
IL6/cell viability (IL6; drug 10 μM, 6 h): 32.5 pg/mL
IL6/cell viability (IL6; drug 10 μM, 24 h): 38.4 pg/mL
Cell Viability (%) (Jurkat T cells; [4]): 91 ± 2%
Cell Viability (%) (Jurkat T cells; [5]): 72 ± 5%
Cell Viability (%) (Jurkat T cells; [6]): 88 ± 9%
Cell Viability (%) (Jurkat T cells; [7]): 70 ± 4%
Cell Viability (%) (Jurkat T cells; [8]): 86 ± 4%
Cell Viability (%) (Jurkat T cells; [9]): 72 ± 7%

CSc1ccc2c(c1)N(CCC1CCCCN1C)c1ccccc1S2 (stereo not drawn) [THZ, Thioridazine]
IFN-γ content in the cells reduced (IFN-γ [1]; 1 μM, after 6 hours, vs PMA + ionomycin alone): 18.6%
IFN-γ content in the cells reduced (IFN-γ [1]; 1 μM, after 24 hours): 28.2%
IFN-γ content in the cells reduced (IFN-γ [1]; 5 μM, after 6 hours): 23.7%
IFN-γ content in the cells reduced (IFN-γ [1]; 5 μM, after 24 hours): 57.7%
IFN-γ content in the cells reduced (IFN-γ [1]; 10 μM, after 6 hours): 36.2%
IFN-γ content in the cells reduced (IFN-γ [1]; 10 μM, after 24 hours): 52.2%
effect on IFN-γ content, in words (IFN-γ [1]; Jurkat, PMA + ionomycin, 6 hr and 24 hr): significantly decreased IFN-γ expression; also recorded: stronger effects to cells compared to TFP and SAHA
IFN-γ content in the cells is reduced at least (IFN-γ [1]; at 6 hours after administering): at least 18.6%
IFN-γ content in the cells is reduced at least (IFN-γ [1]; [17]): at least 28.2%
IFN-γ/cell viability (IFN-γ [1]; [3]): 38.4 pg/mL
IFN-γ/cell viability (IFN-γ [1]; drug 1 μM, 24 h): 24.4 pg/mL
IFN-γ/cell viability (IFN-γ [1]; drug 5 μM, 6 h): 36.0 pg/mL
IFN-γ/cell viability (IFN-γ [1]; drug 5 μM, 24 h): 14.4 pg/mL
IFN-γ/cell viability (IFN-γ [1]; drug 10 μM, 6 h): 30.1 pg/mL
IFN-γ/cell viability (IFN-γ [1]; drug 10 μM, 24 h): 16.3 pg/mL
Cell Viability (%) (THP-1 cells; [10]): 88 ± 7%
Cell Viability (%) (THP-1 cells; [11]): 103 ± 1%
Cell Viability (%) (THP-1 cells; [12]): 79 ± 5%
Cell Viability (%) (THP-1 cells; [13]): 101 ± 8%
Cell Viability (%) (THP-1 cells; [14]): 68 ± 4%
Cell Viability (%) (THP-1 cells; [15]): 87 ± 5%
IL-6 content in the cells reduced (IL6; 1 μM, after 6 hours, vs LPS alone): 20.7%
IL-6 content in the cells reduced (IL6; 1 μM, after 24 hours): 39.5%
IL-6 content in the cells reduced (IL6; 5 μM, after 6 hours): 37.1%
IL-6 content in the cells reduced (IL6; 5 μM, after 24 hours): 51.8%
IL-6 content in the cells reduced (IL6; 10 μM, after 6 hours): 45.9%
IL-6 content in the cells reduced (IL6; 10 μM, after 24 hours): 65.2%
IL-6 content in the cells is reduced at least (IL6; "at hours after administering" (number not given)): at least 20.7%
effect on IL-6 content, in words (IL6; Table 2, 6 hr and 24 hr): stronger effects to cells compared to TFP
IL-6 content in the cells is reduced at least (IL6; [17]): at least 39.5%
IL6/cell viability (IL6; [16]): 52.9 pg/mL
IL6/cell viability (IL6; drug 1 μM, 24 h): 41.3 pg/mL
IL6/cell viability (IL6; drug 5 μM, 6 h): 41.9 pg/mL
IL6/cell viability (IL6; drug 5 μM, 24 h): 32.9 pg/mL
IL6/cell viability (IL6; drug 10 μM, 6 h): 36.1 pg/mL
IL6/cell viability (IL6; drug 10 μM, 24 h): 23.7 pg/mL
effect on cell viability, in words (Jurkat cells; co-treatment with PMA + ionomycin): does not affect cell viability
Cell Viability (%) (Jurkat cells; [18]): 71 ± 4%
Cell Viability (%) (Jurkat cells; group 3, THZ 1 μM co-treated with PMA 0.01 μg/mL + ionomycin 1 μM, 24 hr): 81 ± 4%
Cell Viability (%) (Jurkat cells; [19]): 74 ± 6%
Cell Viability (%) (Jurkat cells; [20]): 65 ± 4%
inhibition at 1 µM (IFN-γ [2]; 24 hr): 46.5%
inhibition at 1 µM (IFN-γ [2]; 48 hr): 18.7%
inhibition at 5 µM (IFN-γ [2]; 24 hr): 45.3%
inhibition at 5 µM (IFN-γ [2]; 48 hr): 1%
effect on cytokine induction, in words (IFN-γ [2]): significantly attenuated cytokine induction in Jurkat cells
effect on cytokine induction, in words (IFN-γ [2]; listed as Thioridazine): able to reduce cytokine production
IFN-γ/cell viability (IFN-γ [2]; group 3, THZ 1 μM co-treated with PI, 24 hr): 34.9 ± 0.5 pg/mL
IFN-γ/cell viability (IFN-γ [2]; [18]): 32.6 ± 0.6 pg/mL
IFN-γ/cell viability (IFN-γ [2]; [19]): 35.7 ± 0.2 pg/mL
IFN-γ/cell viability (IFN-γ [2]; [20]): 39.7 ± 0.6 pg/mL
Cell Viability (%) (Jurkat T cells; [4]): 79 ± 5%
Cell Viability (%) (Jurkat T cells; [5]): 69 ± 6%
Cell Viability (%) (Jurkat T cells; [6]): 77 ± 2%
Cell Viability (%) (Jurkat T cells; [7]): 69 ± 4%
Cell Viability (%) (Jurkat T cells; [8]): 77 ± 2%
Cell Viability (%) (Jurkat T cells; [9]): 55 ± 3%
